In patent US20060069132A1, “Azolecarboxamide herbicides” (priority 2004, published 2006):
Like-named read-outs stand apart in the source and are kept apart here.

Experiments:
morningglory = test: Test B pre-/postemergence herbicide test; assay type: in vivo, Ipomoea coccinea; conditions: Ipomoea, 336 h; for pest or weed control at 125 g/ha: 125 g ai/ha
Summary of the method: (§1)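 Plants compared with untreated controls 13–15 days post-treatment and given a visual 0–100 injury score. Applications: preemergence to seeds; postemergence at 1- to 4-leaf (2–18 cm); paddy species flooded, 2-leaf stage. Vehicle non-phytotoxic, surfactant included.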

blackgrass = test: Test B postemergence herbicide test; assay type: in vivo, Alopecurus myosuroides; conditions: scale 0 (no effect) to 100 (complete control)
Summary of the method: (§2)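 Formulated test chemicals went onto postemergence plants measuring 2 to 18 cm, at one to four leaves. For the paddy assay, species had reached two leaves. Scoring took place 13–15 days later by eye, relative to untreated plants, using 0 for no effect up to 100 for full control.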

large crabgrass = test: Test B pre-/postemergence herbicide test; assay type: in vivo, Digitaria sanguinalis; conditions: Digitaria sanguinalis; for pest or weed control at 500 g/ha: 500 g ai/ha; for pest or weed control at 125 g/ha: 125 g ai/ha
Summary of the method: (§3)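 Herbicidal effect was judged by eye on a 0–100 scale after plants stood 13 to 15 days in the greenhouse following pre- or postemergence treatment with surfactant-containing formulations.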

barnyardgrass [1] = test: Test B pre-/postemergence herbicide test; assay type: in vivo, Echinochloa crus-galli; conditions: Echinochloa crus-galli; for pest or weed control at 500 g/ha: 500 g ai/ha; for pest or weed control at 125 g/ha: 125 g ai/ha
Summary of the method: as §1

Surinam grass = test: Test B pre-/postemergence herbicide test; assay type: in vivo, Urochloa decumbens; conditions: Urochloa decumbens; for pest or weed control at 125 g/ha: 125 g ai/ha
Summary of the method: as §3

cocklebur = test: Test B pre-/postemergence herbicide test; assay type: in vivo, Xanthium strumarium; conditions: Xanthium strumarium; for pest or weed control at 500 g/ha: 500 g ai/ha; for pest or weed control at 125 g/ha: 125 g ai/ha
Summary of the method: as §1

wild oat = test: Test B postemergence herbicide test; assay type: in vivo, Avena fatua; conditions: scale 0 (no effect) to 100 (complete control)
Summary of the method: (§4)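 Plants grow to 1- to 4-leaf stage (2–18 cm) for postemergence spraying, or to 2-leaf stage for the paddy test. Formulated compound is applied. Greenhouse holding lasts 13–15 days. Response is scored visually relative to controls, 0 no effect to 100 complete control; a dash means no result.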

ducksalad = test: Test B flooded paddy test; assay type: in vivo, Heteranthera limosa; conditions: Heteranthera limosa, 336 h, 1000 g ai/ha, visual rating, scale 0 to 100 (0 no effect, 100 complete control), 13 to 15 days, read-out: Ducksalad plant response rating
Summary of the method: as §2

lambsquarters = test: Test B pre-/postemergence herbicide test; assay type: in vivo, Chenopodium album; conditions: Chenopodium album, 336 h; for pest or weed control at 125 g/ha: 125 g ai/ha
Summary of the method: as §3

rice = test: Test B flooded paddy test; assay type: in vivo, Oryza sativa; conditions: Oryza sativa, 336 h, 1000 g ai/ha, visual rating, scale 0 to 100 (0 no effect, 100 complete control), 13 to 15 days, read-out: Rice plant response rating
Summary of the method: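 Treated at 2-leaf (paddy) or 1–4-leaf, 2–18 cm (postemergence); greenhouse 13–15 d; visual score vs control, 0 none to 100 complete control; dash = not tested.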

corn = test: Test B pre-/postemergence herbicide test; assay type: in vivo, Zea mays; conditions: Zea mays
Summary of the method: as §3

velvetleaf = test: Test B pre-/postemergence herbicide test; assay type: in vivo, Abutilon theophrasti; conditions: Abutilon theophrasti, 336 h; for pest or weed control at 125 g/ha: 125 g ai/ha
Summary of the method: as §3

barnyardgrass [2] = test: Test B flooded paddy test; assay type: in vivo, Echinochloa crus-galli; conditions: Echinochloa crus-galli, 336 h, 1000 g ai/ha, visual rating, scale 0 to 100 (0 no effect, 100 complete control), 13 to 15 days, read-out: Barnyardgrass plant response rating
Summary of the method: as §2

wheat = test: Test B postemergence herbicide test; assay type: in vivo, Triticum aestivum; conditions: scale 0 (no effect) to 100 (complete control)
Summary of the method: as §4

[3] = test system: small flower umbrella sedge; test: Test B flooded paddy test; assay type: in vivo, Cyperus difformis; conditions: Cyperus difformis, 336 h, 1000 g ai/ha, visual rating, scale 0 to 100 (0 no effect, 100 complete control), 13 to 15 days, read-out: Sedge, Umbrella plant response rating
Summary of the method: as §2

[4] = Postemergence, 500 g ai/ha, visual rating after 13 to 15 days

**Q.** With `CCn1nc(C(C)(C)C)cc1C(=O)Nc1cccc(C(=O)OCCF)c1` [Compound 82, 2-fluoroethyl 3-[[[3-(1,1-dimethylethyl)-1-ethyl-1H-pyrazol-5-yl]-carbonyl]amino]benzoate] as the molecule, how does the pest or weed control at 500 g/ha (morningglory; post-emergence, Postemergence, 500 g ai/ha, visual rating after 13 to 15 days, scale 0 (no effect) to 100 (complete control), read-out: Plant response rating, Morningglory) read?
**A.** 70%

**Q.** And the pest or weed control at 125 g/ha (morningglory; post-emergence, postemergence, visual rating, scale 0 (no effect) to 100 (complete control), read-out: Morningglory plant response rating)?
**A.** 10%

**Q.** And the pest or weed control at 125 g/ha (morningglory; pre-emergence, preemergence, 0 to 100 scale, 0 is no effect, 100 is complete control, read-out: Plant response rating, Morningglory)?
**A.** 0%

**Q.** And the pest or weed control at 125 g/ha (blackgrass; Alopecurus myosuroides, post-emergence, 336 h, postemergence, 125 g ai/ha, visual rating, read-out: Blackgrass plant response rating)?
**A.** 0%

**Q.** And the “Plant response rating, Blackgrass” value (blackgrass; [4])?
**A.** 10

**Q.** What about the pest or weed control at 500 g/ha (large crabgrass; post-emergence, Postemergence, visual rating after 13 to 15 days, scale 0 (no effect) to 100 (complete control), read-out: Plant response rating, Crabgrass, Large) of the same molecule?
**A.** 20%

**Q.** And the pest or weed control at 125 g/ha (large crabgrass; post-emergence, postemergence, visual rating, scale 0 (no effect) to 100 (complete control), read-out: Crabgrass, Large plant response rating)?
**A.** 10%

**Q.** What about the pest or weed control at 500 g/ha (large crabgrass; pre-emergence, Preemergence, scale 0 to 100, read-out: Crabgrass, Large plant response rating) of the same molecule?
**A.** 0%

**Q.** What about the pest or weed control at 125 g/ha (large crabgrass; pre-emergence, preemergence, 0 to 100 scale, 0 is no effect, 100 is complete control, read-out: Plant response rating, Crabgrass, Large) of the same molecule?
**A.** 0%

**Q.** And the pest or weed control at 500 g/ha (barnyardgrass [1]; post-emergence, Postemergence, visual rating after 13 to 15 days, scale 0 (no effect) to 100 (complete control), read-out: Plant response rating, Barnyardgrass)?
**A.** 20%

**Q.** And the pest or weed control at 125 g/ha (barnyardgrass [1]; post-emergence, postemergence, visual rating, scale 0 (no effect) to 100 (complete control), read-out: Barnyardgrass plant response rating)?
**A.** 10%

**Q.** And the pest or weed control at 500 g/ha (barnyardgrass [1]; pre-emergence, Preemergence, scale 0 to 100, read-out: Barnyardgrass plant response rating)?
**A.** 0%

**Q.** What about the pest or weed control at 125 g/ha (barnyardgrass [1]; pre-emergence, preemergence, 0 to 100 scale, 0 is no effect, 100 is complete control, read-out: Plant response rating, Barnyardgrass) of the same molecule?
**A.** 0%

**Q.** And the pest or weed control at 500 g/ha (Surinam grass; post-emergence, Postemergence, 500 g ai/ha, visual rating after 13 to 15 days, scale 0 (no effect) to 100 (complete control), read-out: Plant response rating, Surinam Grass)?
**A.** 60%

**Q.** And the pest or weed control at 125 g/ha (Surinam grass; post-emergence, postemergence, visual rating, scale 0 (no effect) to 100 (complete control), read-out: Surinam Grass plant response rating)?
**A.** 30%

**Q.** What about the pest or weed control at 125 g/ha (Surinam grass; pre-emergence, preemergence, 0 to 100 scale, 0 is no effect, 100 is complete control, read-out: Plant response rating, Surinam Grass) of the same molecule?
**A.** 0%

**Q.** And the pest or weed control at 500 g/ha (cocklebur; post-emergence, Postemergence, visual rating after 13 to 15 days, scale 0 (no effect) to 100 (complete control), read-out: Plant response rating, Cocklebur)?
**A.** 100%

**Q.** What about the pest or weed control at 125 g/ha (cocklebur; post-emergence, postemergence, visual rating, scale 0 (no effect) to 100 (complete control), read-out: Cocklebur plant response rating) of the same molecule?
**A.** 80%

**Q.** And the pest or weed control at 500 g/ha (cocklebur; pre-emergence, Preemergence, scale 0 to 100, read-out: Cocklebur plant response rating)?
**A.** 0%

**Q.** What about the pest or weed control at 125 g/ha (cocklebur; pre-emergence, preemergence, 0 to 100 scale, 0 is no effect, 100 is complete control, read-out: Plant response rating, Cocklebur) of the same molecule?
**A.** 0%

**Q.** What about the pest or weed control at 125 g/ha (wild oat; Avena fatua, post-emergence, 336 h, postemergence, 125 g ai/ha, visual rating, read-out: Oat, Wild plant response rating) of the same molecule?
**A.** 10%

**Q.** What about the “Plant response rating, Oat, Wild” value (wild oat; [4]) of the same molecule?
**A.** 30

**Q.** What about the pest or weed control at 1000 g/ha (ducksalad) of the same molecule?
**A.** 20%

**Q.** And the pest or weed control at 500 g/ha (lambsquarters; post-emergence, Postemergence, 500 g ai/ha, visual rating after 13 to 15 days, scale 0 (no effect) to 100 (complete control), read-out: Plant response rating, Lambsquarters)?
**A.** 50%

**Q.** And the pest or weed control at 125 g/ha (lambsquarters; post-emergence, postemergence, visual rating, scale 0 (no effect) to 100 (complete control), read-out: Lambsquarters plant response rating)?
**A.** 20%

**Q.** What about the pest or weed control at 125 g/ha (lambsquarters; pre-emergence, preemergence, 0 to 100 scale, 0 is no effect, 100 is complete control, read-out: Plant response rating, Lambsquarters) of the same molecule?
**A.** 0%

**Q.** And the plant injury at 1000 g/ha (rice)?
**A.** 40%

**Q.** And the Corn plant response rating (crop injury, 0 = no effect, 100 = complete kill) at 500 g/ha (corn; post-emergence, Postemergence, 500 g ai/ha, visual rating after 13 to 15 days, scale 0 (no effect) to 100 (complete control))?
**A.** 30%

**Q.** What about the plant injury at 125 g/ha (corn; post-emergence, postemergence, 125 g ai/ha, visual rating, scale 0 (no effect) to 100 (complete control), read-out: Corn plant response rating) of the same molecule?
**A.** 20%

**Q.** And the plant injury at 500 g/ha (corn; pre-emergence, Preemergence, 500 g ai/ha, scale 0 to 100, read-out: Corn plant response rating)?
**A.** 0%

**Q.** And the Corn plant response rating (crop injury, 0 = no effect, 100 = complete kill) at 125 g/ha (corn; pre-emergence, preemergence, 125 g ai/ha, 0 to 100 scale, 0 is no effect, 100 is complete control)?
**A.** 0%

**Q.** And the pest or weed control at 500 g/ha (velvetleaf; post-emergence, Postemergence, 500 g ai/ha, visual rating after 13 to 15 days, scale 0 (no effect) to 100 (complete control), read-out: Plant response rating, Velvetleaf)?
**A.** 90%

**Q.** What about the pest or weed control at 125 g/ha (velvetleaf; post-emergence, postemergence, visual rating, scale 0 (no effect) to 100 (complete control), read-out: Velvetleaf plant response rating) of the same molecule?
**A.** 80%

**Q.** What about the pest or weed control at 125 g/ha (velvetleaf; pre-emergence, preemergence, 0 to 100 scale, 0 is no effect, 100 is complete control, read-out: Plant response rating, Velvetleaf) of the same molecule?
**A.** 0%

**Q.** And the pest or weed control at 1000 g/ha (barnyardgrass [2])?
**A.** 30%

**Q.** What about the “Plant response rating, Wheat” value (wheat; [4]) of the same molecule?
**A.** 20

**Q.** What about the plant injury at 125 g/ha (wheat; Triticum aestivum, post-emergence, 336 h, postemergence, 125 g ai/ha, visual rating, read-out: Wheat plant response rating) of the same molecule?
**A.** 20%

**Q.** And the pest or weed control at 1000 g/ha [3]?
**A.** 40%
